Measurements: PubChem BioAssay (NCI)
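Test compounds were applied to cells in 96-well plates for 48 hours at 5 doses. Here, GI50 denotes the concentration required for 50% inhibition of growth. Definition used: TGI = concentration required for complete inhibition of growth.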

How the values were obtained:
Test in all cases: NCI anticancer screen, dose series, 48 h
HCC-2998 colon = system: HCC-2998 colon
KM12 colon = system: KM12 colon
LOX IMVI melanoma = system: LOX IMVI melanoma
MDA-MB-435 = system: MDA-MB-435
NCI-H23 lung = system: NCI-H23 lung
NCI-H460 lung = system: NCI-H460 lung
OVCAR-3 ovarian = system: OVCAR-3 ovarian
SF-295 CNS = system: SF-295 CNS
SR leukemia = system: SR leukemia
UACC-62 melanoma = system: UACC-62 melanoma

SMILES	GI50 (HCC-2998 colon)	TGI (HCC-2998 colon)	GI50 (KM12 colon)	TGI (KM12 colon)	GI50 (LOX IMVI melanoma)	TGI (LOX IMVI melanoma)	GI50 (MDA-MB-435)	TGI (MDA-MB-435)	GI50 (NCI-H23 lung)	TGI (NCI-H23 lung)	GI50 (NCI-H460 lung)	TGI (NCI-H460 lung)	GI50 (OVCAR-3 ovarian)	TGI (OVCAR-3 ovarian)	GI50 (SF-295 CNS)	TGI (SF-295 CNS)	GI50 (SR leukemia)	TGI (SR leukemia)	GI50 (UACC-62 melanoma)	TGI (UACC-62 melanoma)
COc1ccc(-c2csc(NC(=O)c3cc(O)c(O)c(O)c3)n2)cc1	17.2 µM	> 33.3 µM	13.2 µM	> 33.3 µM	6.57 µM	> 33.3 µM	8.69 µM	> 33.3 µM	11.2 µM	> 33.3 µM	7.5 µM	> 33.3 µM	12.2 µM	> 33.3 µM	16.1 µM	> 33.3 µM	1.89 µM	> 33.3 µM	5.87 µM	> 33.3 µM
CN1CCN(c2ccc(C(=O)Nc3cc(-c4cccc(NS(=O)(=O)c5ccccc5)c4)[nH]n3)cc2)CC1	11.2 µM	24.3 µM	0.0293 µM	13.8 µM	3.05 µM	13.2 µM	6.84 µM	22.3 µM	11.6 µM	35.2 µM	5.46 µM	23.1 µM	12.7 µM	25.8 µM	3.69 µM	20.9 µM	2 µM	5.33 µM	11 µM	23.4 µM
CNCCCNCCCN1C(=O)c2ccc3c4c(ccc(c24)C1=O)C(=O)N(CCCNCc1ccccc1OC)C3=O	1.93 µM	6.42 µM	1.18 µM	3.36 µM	1.52 µM	9.75 µM	1.07 µM	2.91 µM	1.26 µM	4.12 µM	0.429 µM	2.86 µM	1.37 µM	9.23 µM	0.894 µM	2.39 µM	0.27 µM	2.45 µM	1.52 µM	3.51 µM
Cn1c(=O)c(Oc2ccccc2)cc2cnc(NC3CCOCC3)nc21	> 25 µM	> 25 µM	> 25 µM	> 25 µM	> 25 µM	> 25 µM	> 25 µM	> 25 µM	> 25 µM	> 25 µM	> 25 µM	> 25 µM	> 25 µM	> 25 µM	> 25 µM	> 25 µM	> 25 µM	> 25 µM	> 25 µM	> 25 µM
COc1ccc(/C=C/NC=O)cc1		> 100 µM		> 100 µM		> 100 µM		> 100 µM		> 100 µM		> 100 µM		> 100 µM		> 100 µM		> 100 µM		> 100 µM
C=CC1=C(C)C2=NC1=CC1=NC(=CC3=C(C)C4=C(O)C(C(=O)OC)C(=C5NC(=C2)C(C)C5CCC(=O)OC)C4=N3)C(CC)=C1C (stereo not given)		> 100 µM		> 100 µM		> 100 µM		> 100 µM		> 100 µM		> 100 µM		> 100 µM		> 100 µM		> 100 µM		> 100 µM
